{
  "source": "patent US5891924A",
  "about": "“Curcumin (diferuloylmethane) inhibition of NFκB activation” (Research Development Foundation, priority 1996, dated 1999)",
  "key": {"NF-κB [1]": {"tested_on": "NF-κB", "assay": "TNF-dependent NF-κB activation by electrophoretic mobility shift assay in ML-1a cells", "assay_type": "cell-based, human"}, "NF-κB [2]": {"tested_on": "NF-κB", "assay": "Binding of NF-κB to DNA, nuclear extracts from TNF-pre-activated cells incubated with curcumin, EMSA", "parameters": "species or system human", "conditions": "nuclear extracts from TNF-pre-activated cells incubated with curcumin 15 minutes, FIG. 2b"}, "NF-κB [3]": {"tested_on": "NF-κB", "assay": "PMA- and H2O2-mediated activation of NF-κB in ML-1a cells, EMSA", "assay_type": "cell-based, human", "conditions": "curcumin 50 μM 60 minutes preincubation, FIG. 3"}, "AP-1": {"tested_on": "AP-1", "assay": "EMSA of AP-1 transcription factor in curcumin-treated cells", "assay_type": "cell-based, human", "conditions": "cells treated with different concentrations of curcumin 60 minutes at 37° C., FIG. 4"}, "Sp1": {"tested_on": "Sp1", "assay": "EMSA of Sp1 transcription factor in curcumin-treated cells", "assay_type": "cell-based, human", "conditions": "cells treated with different concentrations of curcumin 60 minutes at 37° C., FIG. 4"}, "NF-κB [4]": {"tested_on": "NF-κB", "assay": "Effect of reducing agents DTT and DMP on inhibition of TNF-induced NF-κB activation, EMSA", "assay_type": "cell-based, human", "conditions": "DTT 100 μM or DMP 100 μM, curcumin 50 μM or PAO 2.4 μM, 60 minutes, then 0.1 nM TNF 30 minutes, FIG. 5"}, "IκBα": {"tested_on": "IκBα", "assay": "Western blot for TNF-induced phosphorylation and degradation of IκBα in ML-1a cells", "assay_type": "cell-based, human", "conditions": "curcumin 50 μM 60 minutes pretreatment, TNF 0.1 nM different times, cytosolic fraction, FIG. 6A", "procedure": "ML-1a (2×10^6 /ml) pretreated (for 60 minutes at 37° C.) with or without curcumin (50 μM) were incubated for different times with TNF (0.1 nM), and then assayed for IκBα (FIG. 6A) and for p65 (FIG. 6B) in cytosolic fractions by western blot analysis as described below. ML-1a (2×10^6 /ml) pretreated (for 60 minutes at 37° C.) with curcumin were incubated with TNF (0.1 nM) for 30 minutes. Nuclear and cytoplasmic extracts were assayed by western blot analysis for p65. The arbitrary units represent the relative amounts of the respective proteins as described below.\nAfter the NF-κB activation reaction described above, postnuclear extracts were resolved on 10% SDS-polyacrylamide gels for IκBα. To determine p65 levels, nuclear and post nuclear (cytoplasmic) extracts were resolved on 8% SDS-polyacrylamide gels. After the gels, the proteins were electrotransferred to nitrocellulose filters, probed with a rabbit polyclonal antibody against IκBa or against p65, and detected by chemiluminescence (ECL-Amersham) (22). The bands obtained were quantitated using Personal Densitometer Scan v1.30 using Image Quanta software version 3.3 (Molecular Dynamics, Sunnyvale, Calif.).\nThe translocation of NF-κB to the nucleus is preceded by the phosphorylation and proteolytic degradation of IκBα (26). […]"}, "p65 subunit of NF-κB": {"tested_on": "p65 subunit of NF-κB", "assay": "Western blot for p65 level in cytoplasm and nucleus of TNF-treated ML-1a cells", "assay_type": "cell-based, human"}},
  "data": [
    {"smiles": "COc1cc(/C=C/C(=O)CC(=O)/C=C/c2ccc(O)c(OC)c2)ccc1O", "note": "[curcumin, diferuloylmethane]", "values": [
      {"measurement": "inhibition of TNF response, pretreatment with curcumin", "setting": "NF-κB [1]; 20 μM curcumin 60, 30 and 10 minutes prior to TNF 0.1 nM, TNF 30 minutes, FIG. 1b", "result": "inhibited only when cells were pretreated"},
      {"measurement": "inhibition of TNF response, cotreatment of cells with TNF and curcumin", "setting": "NF-κB [1]; 20 μM curcumin added at the same time as TNF 0.1 nM, TNF 30 minutes, FIG. 1b", "result": "not effective"},
      {"measurement": "inhibition of NF-κB activation induced by 10 nM TNF", "setting": "NF-κB [1]; 50 μM curcumin 60 minutes pretreatment, 10 nM TNF for different times, FIG. 1c", "result": "completely inhibit"},
      {"measurement": "activation of NF-κB by the compound by itself", "setting": "NF-κB [1]; ML-1a cells, without TNF, EMSA", "result": "did not activate"},
      {"measurement": "effect on the ability of NF-κB to bind to the DNA", "setting": "NF-κB [2]", "result": "did not modify"},
      {"measurement": "inhibition of hydrogen peroxide-induced activation of NF-κB", "setting": "NF-κB [3]; H2O2 0.5 mM 30 minutes", "result": "completely blocked"},
      {"measurement": "inhibition of PMA-induced activation of NF-κB", "setting": "NF-κB [3]; PMA 25 ng/ml 30 minutes", "result": "completely blocked"},
      {"measurement": "effect on DNA binding of AP-1 transcription factors", "setting": "AP-1", "result": "down-modulated"},
      {"measurement": "effect on the Sp1 transcription factor", "setting": "Sp1", "result": "no effect"},
      {"measurement": "reversal by DTT and DMP of the inhibition of TNF-induced NF-κB activation", "setting": "NF-κB [4]", "result": "did not reverse"},
      {"measurement": "effect on TNF-induced phosphorylation and degradation of IκBα", "setting": "IκBα", "result": "abolished"},
      {"measurement": "effect on TNF-dependent change in nuclear and cytoplasmic p65 levels (translocation of p65 to the nucleus)", "setting": "p65 subunit of NF-κB; curcumin 50 μM 60 minutes pretreatment, TNF 0.1 nM, FIGS. 6B and 6C", "result": "abolished"},
      {"measurement": "down-modulation of the cytoplasmic pool of p65 subunit of NF-κB", "setting": "p65 subunit of NF-κB; curcumin-treated ML-1a cells, western blot", "result": "not down-modulated"}
    ]}
  ]
}
